# Data from PubChem BioAssay AID2060610 (Molecular Pharmacology Branch, DTP, NCI, 2025).
# Where “and” joins values, the source holds several entries; their conditions need not be identical. Equal values may be shown once.
# Test system: 616215-338-R-J1-PDC complex spheroids, viability % test/control
# Assay: Anticancer human tumor 616215-338-R-J1-PDC patient-derived colon adenocarcinoma cell line growth inhibition [CLK]
# Conditions: for viability, T/C: stronger effect = lower value
# Excerpt: A high-throughput screen of multi-cell type tumor spheroids was designed to identify active combinations of […] and targeted small molecules. Complex spheroids include a stromal component modeled by human endothelial cells (HUVEC) and fibroblasts modeled by human mesenchymal stem cells (MSCs). The concentration ranges selected for each drug and investigational agent were based upon clinically achievable concentrations if the clinical Cmax of the agent was known.
# Compounds. The drugs and investigational agents: cirtuvivint (SM08502; NSC835563), CC-671 (NSC850746), vemurafenib (NSC761431), tapotoclax (NSC804041), sotorasib (NSC818433), adagrasib (NSC831453), MRTX-1133 (NSC836407), BAY2416964 (NSC825713), copanlisib (NSC816437), inavolisib (NSC800729), abemaciclib (NSC768073), osimertinib (NSC779217), entinostat (NSC756642), eltanexor (KPT-8602, NSC794443), venetoclax (NSC766270), ceralasertib (NSC777638), bortezomib (NSC756655), olaparib (NSC753686), talazoparib (NSC767125), alisertib (NSC759677), peposertib (NSC802822), gemcitabine (NSC613327), 5-fluorouracil (NSC19893), SN-38 (NSC673596), oxaliplatin (NSC266046), paclitaxel (NSC125973), and doxorubicin (NSC123127), were obtained from the National Cancer Institute (NCI) Developmental Therapeutics Program Chemical Repository. The FDA-approved anticancer drug set is available from the Developmental Therapeutics Program at https://dtp.cancer.gov/organization/dscb/obtaining/available plates.htm. […] The stock solutions were prepared in dimethyl sulfoxide (DMSO, Sigma-Aldrich, St. Louis, MO, cat. D2650), except for the platinum complexes which were prepared in saline (Quality Biological, Gaithersburg, MD, cat. 114-055-101), at 800-fold the tested concentration and stored at -70 degrees C prior to their use. All drugs and investigational agents were tested over a range starting from a high concentration at or near the clinical Cmax and decreasing in half-log increments. If the clinical Cmax for an agent had not been determined, the highest concentration tested was 10 microM.
# Cell Culture. All cells were maintained in an incubator at 37 degrees C and 5% CO2 with 95% humidity. The PDC lines were cultured according to standard operating procedures established by the NCI PDMR. Briefly, all PDCs were thawed and cultured in Matrigel-coated flasks prepared with a working solution of 1X Ham's F-12 nutrient mix, without supplementation (Invitrogen, Waltham, MA, cat. 11765054), 100 U/mL penicillin-streptomycin (Invitrogen, cat. 15140122), and 2.5% Matrigel (Corning Inc., Corning, NY, cat. 354248) for the first three passages. The 947758-054-R-J2-PDC line was cultured in 6B/Colon 1A media, which includes advanced DMEM/F-12 (Thermo Fisher Scientific, cat. 12634028), 10 mM HEPES (Thermo Fisher Scientific, cat. 15630080), 1X GlutaMAX supplement (Thermo Fisher Scientific, cat. 35050061), 0.1 mg/mL primocin (InvivoGen, cat. ant-pm-2), 10% defined fetal bovine serum, heat inactivated (HyClone Laboratories Inc., cat. SH30070.03HI), 1.25 mM N-Acetyl-L-cysteine (Sigma-Aldrich, cat. A9165), 10 mM nicotinamide (Sigma-Aldrich, cat. N0636), 1X B-27 supplement (Thermo Fisher Scientific, cat. 17504044), 1X N-2 supplement (Thermo Fisher Scientific, cat. 17502048), and 10 microM Y-27632 dihydrochloride (Tocris Bioscience, cat. 1254). The 876862-298-R-J1-PDC was cultured in 6E media, which includes all 6B/Colon 1A media components plus 50% L-WRN conditioned media (ATCC, cat. CRL-3276), 50 ng/mL recombinant human EGF recombinant protein (hEGF; Thermo Fisher Scientific, cat. PHG0311), 10 ng/mL recombinant human fibroblast growth factor 10 (hGFG-10; PeproTech, cat. 100-26), 1 ng/mL recombinant human fibroblast growth factor 2 (hFGF-2; PeproTech, cat. 100-18B), and 1 µM prostaglandin E2 (PGE2; Tocris, cat. 2296). The 227483-062-R1-J1-PDC line was cultured in Panc media, containing all 6E components except hFGF-2, with the addition of 500 nM SB-431542 (Selleckchem, cat. S1067) and 10 nM gastrin (Tocris, cat. 3006). […]
# [1] = curve of first compound, second compound 0.0316 µM
# [2] = curve of first compound, second compound 0.1 µM
# [3] = curve of first compound, second compound 0.316 µM
# [4] = curve of first compound, second compound 1 µM
# [5] = curve of first compound, second compound 3.16 µM
# [6] = curve of first compound, second compound 10 µM
# 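Also: spheroids exposed to agents for 7 days.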
# 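For viability, T/C in this document: 100% = DMSO vehicle wells.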
compound,measurement,setting,value
CC(=O)O[C@H]1C(=O)[C@@]2(C)[C@H]([C@H](OC(=O)c3ccccc3)[C@]3(O)C[C@H](OC(=O)[C@H](O)[C@@H](NC(=O)c4ccccc4)c4ccccc4)C(C)=C1C3(C)C)[C@]1(OC(C)=O)CO[C@@H]1C[C@@H]2O + CN1CCN(c2cc(C(=O)Nc3cc4cc(-c5cnn(C)c5)ccc4cn3)ccn2)CC1,IC50,[1],< 0.0316 µM
same,IC50,[2],< 0.0316 µM
same,IC50,[3],< 0.0316 µM
same,IC50,[4],< 0.0316 µM
same,IC50,[5],< 0.0316 µM
same,IC50,[6],< 0.0316 µM
same,"viability, T/C","second compound 0.0316 µM, first compound 0.0316 µM",31.2%
same,"viability, T/C","second compound 0.0316 µM, first compound 0.1 µM",21.8%
same,"viability, T/C","second compound 0.0316 µM, first compound 0.316 µM",14.7%
same,"viability, T/C","second compound 0.0316 µM, first compound 1 µM",18%
same,"viability, T/C","second compound 0.0316 µM, first compound 3.16 µM",18.6%
same,"viability, T/C","second compound 0.0316 µM, first compound 10 µM",22.4%
same,"viability, T/C","second compound 0.1 µM, first compound 0.0316 µM",31.1%
same,"viability, T/C","second compound 0.1 µM, first compound 0.1 µM",17.9%
same,"viability, T/C","second compound 0.1 µM, first compound 0.316 µM",19.9%
same,"viability, T/C","second compound 0.1 µM, first compound 1 µM",16.4%
same,"viability, T/C","second compound 0.1 µM, first compound 3.16 µM",17.4%
same,"viability, T/C","second compound 0.1 µM, first compound 10 µM",25.2%
same,"viability, T/C","second compound 0.316 µM, first compound 0.0316 µM",21.8%
same,"viability, T/C","second compound 0.316 µM, first compound 0.1 µM",18%
same,"viability, T/C","second compound 0.316 µM, first compound 0.316 µM",19.3%
same,"viability, T/C","second compound 0.316 µM, first compound 1 µM",16.1%
same,"viability, T/C","second compound 0.316 µM, first compound 3.16 µM",19.9%
same,"viability, T/C","second compound 0.316 µM, first compound 10 µM",20.5%
same,"viability, T/C","second compound 1 µM, first compound 0.0316 µM",0.09%
same,"viability, T/C","second compound 1 µM, first compound 0.1 µM",0.12%
same,"viability, T/C","second compound 1 µM, first compound 0.316 µM",3.34%
same,"viability, T/C","second compound 1 µM, first compound 1 µM",0.08%
same,"viability, T/C","second compound 1 µM, first compound 3.16 µM",0.1%
same,"viability, T/C","second compound 1 µM, first compound 10 µM",3.08%
same,"viability, T/C","second compound 3.16 µM, first compound 0.0316 µM",0.05%
same,"viability, T/C","second compound 3.16 µM, first compound 0.1 µM",0.11%
same,"viability, T/C","second compound 3.16 µM, first compound 0.316 µM",0.13%
same,"viability, T/C","second compound 3.16 µM, first compound 1 µM",0.1%
same,"viability, T/C","second compound 3.16 µM, first compound 3.16 µM",1.96%
same,"viability, T/C","second compound 3.16 µM, first compound 10 µM",2.3%
same,"viability, T/C","second compound 10 µM, first compound 0.0316 µM",0.06%
same,"viability, T/C","second compound 10 µM, first compound 0.1 µM",0.13%
same,"viability, T/C","second compound 10 µM, first compound 0.316 µM",0.17%
same,"viability, T/C","second compound 10 µM, first compound 1 µM",0.16%
same,"viability, T/C","second compound 10 µM, first compound 3.16 µM",0.19%
same,"viability, T/C","second compound 10 µM, first compound 10 µM",1.72%
CC(C)CC(NC(=O)C(Cc1ccccc1)NC(=O)c1cnccn1)B(O)O (stereo unspecified) + CN1CCN(c2cc(C(=O)Nc3cc4cc(-c5cnn(C)c5)ccc4cn3)ccn2)CC1,IC50,[1],0.00554 µM
same,IC50,[2],0.0058 µM
same,IC50,[3],< 0.000949 µM
same,IC50,[4],< 0.000949 µM
same,IC50,[5],< 0.000949 µM
same,IC50,[6],< 0.000949 µM
same,"viability, T/C","second compound 0.0316 µM, first compound 0.000949 µM",105%
same,"viability, T/C","second compound 0.0316 µM, first compound 0.003 µM",107%
same,"viability, T/C","second compound 0.0316 µM, first compound 0.00949 µM",1.23%
same,"viability, T/C","second compound 0.0316 µM, first compound 0.03 µM",0.23%
same,"viability, T/C","second compound 0.0316 µM, first compound 0.0949 µM",0.16%
same,"viability, T/C","second compound 0.0316 µM, first compound 0.3 µM",1.94%
same,"viability, T/C","second compound 0.1 µM, first compound 0.000949 µM",121%
same,"viability, T/C","second compound 0.1 µM, first compound 0.003 µM",116%
same,"viability, T/C","second compound 0.1 µM, first compound 0.00949 µM",0.22%
same,"viability, T/C","second compound 0.1 µM, first compound 0.03 µM",0.19%
same,"viability, T/C","second compound 0.1 µM, first compound 0.0949 µM",0.18%
same,"viability, T/C","second compound 0.1 µM, first compound 0.3 µM",0.18%
same,"viability, T/C","second compound 0.316 µM, first compound 0.000949 µM",29.7%
same,"viability, T/C","second compound 0.316 µM, first compound 0.003 µM",4.76%
same,"viability, T/C","second compound 0.316 µM, first compound 0.00949 µM",0.19%
same,"viability, T/C","second compound 0.316 µM, first compound 0.03 µM",0.14%
same,"viability, T/C","second compound 0.316 µM, first compound 0.0949 µM",0.16%
same,"viability, T/C","second compound 0.316 µM, first compound 0.3 µM",0.13%
same,"viability, T/C","second compound 1 µM, first compound 0.000949 µM",0.15%
same,"viability, T/C","second compound 1 µM, first compound 0.003 µM",0.17%
same,"viability, T/C","second compound 1 µM, first compound 0.00949 µM",0.34%
same,"viability, T/C","second compound 1 µM, first compound 0.03 µM",0.1%
same,"viability, T/C","second compound 1 µM, first compound 0.0949 µM",0.1%
same,"viability, T/C","second compound 1 µM, first compound 0.3 µM",1.57%
same,"viability, T/C","second compound 3.16 µM, first compound 0.000949 µM",0.09%
same,"viability, T/C","second compound 3.16 µM, first compound 0.003 µM",0.13%
same,"viability, T/C","second compound 3.16 µM, first compound 0.00949 µM",0.12%
same,"viability, T/C","second compound 3.16 µM, first compound 0.03 µM",0.08%
same,"viability, T/C","second compound 3.16 µM, first compound 0.0949 µM",1.71%
same,"viability, T/C","second compound 3.16 µM, first compound 0.3 µM",0.13%
same,"viability, T/C","second compound 10 µM, first compound 0.000949 µM",0.08%
same,"viability, T/C","second compound 10 µM, first compound 0.003 µM",0.13%
same,"viability, T/C","second compound 10 µM, first compound 0.00949 µM",0.15%
same,"viability, T/C","second compound 10 µM, first compound 0.03 µM",0.11%
same,"viability, T/C","second compound 10 µM, first compound 0.0949 µM",2.22%
same,"viability, T/C","second compound 10 µM, first compound 0.3 µM",0.2%
NC(=O)C(=Cn1cnc(-c2cc(C(F)(F)F)cc(C(F)(F)F)c2)n1)c1cncnc1,"viability, T/C",compound 0.00949 µM,99.3% and 94.8%
same,"viability, T/C",compound 0.03 µM,103% and 87.1%
same,"viability, T/C",compound 0.0949 µM,103% and 94.1%
same,"viability, T/C",compound 0.3 µM,66.9% and 87.5%
same,"viability, T/C",compound 0.949 µM,35.8% and 33.5%
same,"viability, T/C",compound 3 µM,15% and 17.6%
same,IC50,curve of compound,0.562 µM and 0.668 µM
